Results from US20100184812A1, “MUTUAL PRODRUGS AND METHODS TO TREAT CANCER” (UNIVERSITY OF MARYLAND, BALTIMORE, priority 2007, published 2010).
Entries after “also recorded” stand apart in the source; their conditions may differ. Like-named read-outs stand apart in the source and are kept apart here. Each block holds one compound with its values, some of them ahead of it.

Tests used:
[1] = test system: PC-3 prostate cancer cells; test: MTT cell growth inhibition assay, PC-3 cells; format: cell-based, human
Procedure: PC-3 (androgen receptor negative, AR−ve) cells were obtained from American Type Culture Collection (ATCC, Rockville, Md., USA). Cells were maintained in RPMI 1640 medium (Gibco, Invitrogen, Carlsbad, Calif., USA) supplemented with 10% fetal bovine serum (Atlanta Biologicals, Lawrenceville, Ga., USA) and 1% penicillin/streptomycin. Cells were grown as a monolayer in T75 tissue culture flasks in a humidified incubator (5% CO2, 95% air) at 37° C.
(§1) PC-3 cells were seeded in 24 well plates (Corning Costar) at a density of 2×10^4 cells per well per 1 mL of medium. Cells were allowed to adhere to the plate for 24 hours and then treated with different concentrations of ATRA, HDIs or mutual prodrugs dissolved in 10% DMSO, 90% ethanol. Cells were treated for five days with renewal of prodrug and media on day 3. On the fifth day, medium was renewed and 100 μL of MTT (3-(4,5-dimethylthiazol-2-yl)-2,5-diphenyl-2H-tetrazolium bromide from Sigma) solution (0.5 mg MTT/mL of media) was added to the medium such that the ratio of MTT:medium was 1:10. The cells were incubated with MTT for 2 hours. The medium was then aspirated and 500 μL of DMSO was added to solubilize the violet MTT-formazan product. The absorbance at 560 nm was measured by spectrophotometry (Victor 1420 multilabel counted, Wallac). For each concentration of agent or mutual prodrugs there were triplicate wells in each independent experiment. GI50 values were calculated by nonlinear regression analysis using GraphPad Prism software.
(§2) The MTT (3-[4,5-dimethylthiazol-2-yl]-2,5-diphenyltetrazolium bromide) assay was used to measure the cell viability. PC-3 cells or MDA-MB-231 cells (1.0×10^3 cells/ml) were seeded into 96 well plates. Cells were treated with the compounds on day 2 at different concentrations. On the 5th day, the medium was removed and […] of a 0.5 mg/ml MTT solution was added to each well. The plates were incubated at 37° C. for 2 hours and 200 μL of DMSO was added. The yellow tetrazolium salt (MTT) is reduced to a purple formazan product by the mitochondrial dehydrogenase from living cells. The product is then detected by spectrophotometry at 560 nm.
To assess the effect of mutual prodrugs on cell growth, PC-3 and MDA-MB-231 cells were treated with mutual prodrugs for […], respectively. […] In this cell line, the order of potency was VNLG/66>VNLG/114>VNLG/122>VNLG/124>VNLG/60. The efficacies of mutual prodrugs were compared to the efficacies of ATRA or HDIs alone in PC-3 prostate cancer cells. […] The reason(s) for these differential potencies of the different mutual prodrugs in PC-3 cells are unknown at this time, but may be idiosyncratic, possibly due to extents and efficiencies of cell membrane penetration and/or intracellular cleavage of mutual prodrugs.

[2] = test system: MDA-MB-231 breast cancer cells; test: MTT colorimetric cell viability assay, MDA-MB-231 cells; format: cell-based
Procedure: (§3) Other cell lines used in this study include, MDA-MB-231 (estrogen receptor negative, ER−ve), MCF-7 (ER+ve) were also purchased from ATCC and were cultured as previously described.^44, 45 LTLC and LTLT-Ca were kindly provided by Dr. Angela Brodie, University of Maryland, Baltimore, and details of their phenotypes and culturing conditions are as previously reported.^46, 47 MCF-7TAM and MCF-7HoxB-7 were provided by Dr. Sara Sukumar of Johns Hopkins University, Baltimore, and details of their phenotypes and culturing conditions are as previously reported.^48 Except for MCF-7 breast cancer cell all other breast cancer cells used in this study are insensitive to endocrine therapeutic agents and to most anti-cancer agents.
as §2, with “viability.” for “viability. PC-3 cells or”, “compound” for “compounds”
as §2

MCF-7 = test: MTT cell growth inhibition, MCF-7 cells; format: cell-based
Procedure: as §3, §1
(§4) Given the potency of most of the mutual prodrugs of the present invention, in MDA-MB-231 and PC-3 cell lines, their effects on the growth of some known drug-resistant breast cancer cell lines, including MCF-7TAMR, MCF-7Hox-B7, LTLC and LTLT-Ca was tested compared to parental MCF-7 cells.

MCF-7HOX-B7 = test: MTT cell growth inhibition, MCF-7HOX-B7 cells; format: cell-based
Procedure: as §3, §1, §4

MCF-7TAMR = test: MTT cell growth inhibition, MCF-7TAMR cells; format: cell-based
Procedure: as §3, §1, §4

LTLT-Ca = test: MTT cell growth inhibition, LTLT-Ca cells; format: cell-based
Procedure: as §3
(§5) PC-3 cells were seeded in 24 well plates (Corning Costar) at a density of 2×10^4 cells per well per 1 mL of medium. Cells were allowed to adhere to the plate for 24 hours and then treated with different concentrations of ATRA, HDIs or mutual prodrugs dissolved in 10% DMSO, 90% ethanol. Cells were treated for five days with renewal of prodrug and media on day 3. […] The absorbance at 560 nm was measured by spectrophotometry (Victor 1420 multilabel counted, Wallac). […] GI50 values were calculated by nonlinear regression analysis using GraphPad Prism software. […]

LTLC = test: MTT cell growth inhibition, LTLC cells; format: cell-based
Procedure: as §3, §5

[3] = pH 7.2
Procedure: Plasma was obtained by centrifugation of blood samples (obtained from mice) containing 0.25% heparin. 0.8 ml of plasma was mixed with 0.2 ml of phosphate buffer (pH 7.2). Incubations were performed at 37° C.+/−0.5° C. using shaking water bath. The reaction was initiated by adding 25 μl of stock solution of mutual prodrugs (1 mg/ml) to preheated plasma and aliquots were taken at different time interval and extracted using solid phase extraction with C18 Bond Elut columns. HPLC analysis of the extracted samples were performed using a multi-linear gradient solvent system, (i) 20 mM aq. CH3COONH4 buffer/CH3OH(50:50), (100% to 0%) and (ii) CH3OH(100%), (0% to 100%) at a flow rate of 0.8 ml/min.
Plasma was obtained by centrifugation of blood samples containing 0.25% heparin. 0.8 ml of plasma was mixed with 0.2 ml of phosphate buffer (pH 7.2). Incubations were performed at 37° C.±0.5° C. using shaking water bath. […]
HPLC methods were developed to briefly study the cleavage of compounds VNLG/60, VNLG/66, VNLG/114,VNLG/122 and VNLG/124, in fresh mouse plasma. […] Furthermore, the stability of mutual prodrugs was studied in 0.02 M phosphate buffer (pH=7.2) and also in 80% human serum (obtained from Sigma) containing 20% 0.02 M phosphate buffer as previously described.^41 The mutual prodrugs were each incubated at 37° C. for 24 h, extracted and analyzed by HPLC.

[4] = Homo sapiens, PC-3, dose-response curves, at least three independent experiments, SEM < 10%, read-out: GI50 Values, PC-3 prostate cancer cells
[5] = Homo sapiens, MDA-MB-231, read-out: GI50, MDA-MB-231 cells
[6] = Homo sapiens, MDA-MB-231, dose-response curves, at least three independent experiments, SEM < 10%, read-out: GI50 Values, MDA-MB-231 breast cancer cells
[7] = PC-3, dose-response curves, at least three independent experiments, SEM < 10%, read-out: GI50 Values, PC-3 prostate cancer cells
[8] = MDA-MB-231, dose-response curves, at least three independent experiments, SEM < 10%, read-out: GI50 Values, MDA-MB-231 breast cancer cells
[9] = MDA-MB-231, read-out: GI50, MDA-MB-231 cells

Compound: CCCC(=O)OCc1ccc(OC(=O)/C=C(C)/C=C/C=C(C)/C=C/C2=C(C)CCCC2(C)C)cc1 [VNLG/124, 4-(Butanoyloxymethyl)phenyl(2E,4E,6E,8E)-3,7-dimethyl-9-(2,6,6-trimethylcyclohex-1-enyl)nona-2,4,6,8-tetraenoate]
inhibition at 20 µM ([1]; Homo sapiens, PC-3, 20 μM, FIG. 8): ~80% | GI50 ([1]; Homo sapiens, PC-3, FIG. 9, combination = increasing ATRA with BA 10.0 μM, read-out: GI50, PC-3 dose-response curves (FIG. 9)): 1.7 µM | GI50 [1, 4]: 1.02 µM | growth inhibitory effect versus parent drugs alone or in combination ([1]; PC3): significant increase | GI50 fold lower than the combination of ATRA and BA ([1]; PC-3, FIG. 9): 15 fold | GI50 [2, 5]: 0.01 µM | GI50 ([2]; Homo sapiens, MDA-MB-231, head-to-head with 3, FIG. 7, read-out: GI50 for inhibition of growth of MDA-MB-231 cells, head-to-head (FIG. 7)): 0.048 µM | GI50 [2, 6]: 0.01 µM | GI50 fold lower than ATRA ([2]; MDA-MB-231): 1085 fold | GI50 fold lower than BA ([2]; MDA-MB-231): over 100,000 fold | growth inhibitory effect versus parent drugs alone or in combination ([2]; MDA-MB-231): significant increase | GI50 fold lower than that of 3 ([2]; MDA-MB-231, FIG. 7): 25 fold

Compound: CCCC(=O)OCOC(=O)C=C(C)C=CC=C(C)C=CC1=C(C)CCCC1(C)C [compound 3, retinoyloxymethyl butyrate, reference compound]
GI50 ([2]; MDA-MB-231, head-to-head with VNLG/124, FIG. 7, read-out: GI50 for inhibition of growth of MDA-MB-231 cells, head-to-head (FIG. 7)): 1.18 µM

Compound: Nc1ccccc1NC(=O)c1ccc(CNC(=O)OCc2cccnc2)cc1 [MS-275, N-(2-aminophenyl)4-[N-(pyridine-3-yl-methoxy-carbonyl)aminomethyl]benzamide, reference compound]
GI50 ([1]; Homo sapiens, PC-3, read-out: GI50, PC-3 cells): 0.19 µM | GI50 [1, 4]: 0.19 µM | GI50 [2, 6]: 0.009 µM

Compound: {N-[N-{2-[4-{[3-Pyridylmethoxy)carbonyamino]methyl}phenyl)carbonylamino]phenyl}carbamoyl carbamoyloxy}methyl(2E,4E,6E,8E)-3,7-dimethyl-9-(2,6,6-trimethylcyclohex-1-enyl)nona-2,4,6,8-tetraenoate [VNLG/66]
GI50 (LTLT-Ca): 0.65 µM | GI50 (MCF-7; MCF-7): 0.15 µM | GI50 fold lower than 2 (MS-275) ([1]; PC-3): 4.75 fold | GI50 [1, 7]: 0.04 µM | GI50 ([1]; PC-3, read-out: GI50, PC-3 cells): 0.04 µM | GI50 (LTLC): 0.02 µM | GI50 [2, 8]: 0.94 µM | GI50 [2, 9]: 0.94 µM | GI50 (MCF-7HOX-B7; MCF-7HOX-B7): 0.006 µM | GI50 (MCF-7TAMR; MCF-7TAMR): 0.02 µM | hydrolysis of mutual prodrug in plasma [3]: no mutual Prodrug after one hour

Compound: CC1=C(/C=C/C(C)=C/C=C/C(C)=C/C(=O)Oc2ccc(COC(=O)Nc3ccccc3NC(=O)c3ccc(NCC(=O)OCc4cccnc4)cc3)cc2)C(C)(C)CCC1 [VNLG/114, 4-{[N-(2-{[4-({[(3-Pyridylmethyl)oxycarbonyl]methyl}amino)phenyl]carbonylamino}phenyl)carbamoyloxy]methyl}phenyl(2E,4E,6E,8E)-3,7-dimethyl-9-(2,6,6-trimethylcyclohex-1-enyl)nona-2,4,6,8-tetraenoate]
GI50 (MCF-7; Homo sapiens, MCF7): 0.06 µM | GI50 [1, 4]: 0.18 µM | melting point: 128 to 130 °C | GI50 [2, 6]: 0.17 µM | growth inhibitory effect versus parent drugs alone or in combination ([2]; MDA-MB-231): synergistic growth inhibitory effect; also recorded: significant increase | GI50 (MCF-7HOX-B7): 0.72 µM | GI50 (MCF-7TAMR): 0.21 µM

Compound: CCCC(=O)[O-].[Na+] [Sodium butyrate (BA), Sodium butyrate, reference compound]
GI50 ([1]; Homo sapiens, PC-3, read-out: GI50 Values, PC-3 prostate cancer cells): 72.4 µM | GI50 [2, 6]: > 1000 µM

Compound: CC(=O)Nc1ccc(C(=O)Nc2ccccc2NC(=O)OCc2ccc(OC(=O)/C=C(C)/C=C/C=C(C)/C=C/C3=C(C)CCCC3(C)C)cc2)cc1 [VNLG/122, 4-{[N-2-{[4-(Acetylamino)phenyl]carbonylamino}phenyl0carbamoyloxy]methyl}phenyl(2E,4E,6E,8E) -3,7-dimethyl-9-(2,6,6-trimethylcyclohex-1-enyl)nona-2,4,6,8-tetraenoate]
GI50 (MCF-7; MCF-7): 0.52 µM | GI50 [1, 7]: 0.87 µM | GI50 fold difference to VNLG/60 ([2]; MDA-MB-231): 31.5 fold | GI50 fold lower than ATRA ([2]; MDA-MB-231): 543 fold | GI50 fold lower than CI-994 ([2]; MDA-MB-231): 8.5 fold | GI50 [2, 8]: 0.02 µM | GI50 [2, 9]: 0.02 µM | GI50 (MCF-7HOX-B7; MCF-7HOX-B7): 8.13 µM | GI50 (MCF-7TAMR; MCF-7TAMR): 0.08 µM

More lines, main results first:

GI50 [1, 4]: 0.29 µM | GI50 [2, 6]: 0.17 µM
Compound: CC(=O)Nc1ccc(C(=O)Nc2ccccc2N)cc1 [CI-994, N-(2′-aminophenyl)-4-acetylaminobenzamide, reference compound]

GI50 (MCF-7; Homo sapiens, MCF7): 0.25 µM | GI50 [1, 4]: 4.27 µM | GI50 [2, 5]: 0.63 µM | GI50 ([2]; Homo sapiens, MDA-MB-231, MTT assay, FIG. 1C, read-out: GI50, MDA-MB-231 (FIG. 1C)): 4.3 µM | GI50 [2, 6]: 0.63 µM | GI50 (MCF-7HOX-B7): 1.2 µM | GI50 (MCF-7TAMR): 0.17 µM
Compound: CC(=O)Nc1ccc(C(=O)Nc2ccccc2NC(=O)CNC(=O)OCOC(=O)/C=C(C)/C=C/C=C(C)/C=C/C2=C(C)CCCC2(C)C)cc1 [VNLG/60, (N-{[N-(2-{[4-(Acetylamino)phenyl]carbonylamino}phenyl)carbamoyl]methyl}carbamoyloxy)methyl(2E,4E,6E,8E)-3,7-dimethyl-9-(2,6,6-trimethylcyclohex-1-enyl)nona-2,4,6,8-tetraenoate]
growth inhibitory effect versus parent drugs alone or in combination ([2]; MDA-MB-231): synergistic growth inhibitory effect

GI50 [1, 4]: 7.6 µM | GI50 [2, 6]: 10.8 µM
Compound: CC1=C(/C=C/C(C)=C/C=C/C(C)=C/C(=O)O)C(C)(C)CCC1 [ATRA, all-trans retinoic acid, reference compound]

GI50 [1, 4]: 1.02 µM | GI50 fold lower than that of butyric acid (BA) ([1]; PC-3): 74 fold
Compound: CC1=C(/C=C/C(C)=C/C=C/C(C)=C/C(=O)Oc2ccc(CO)cc2)C(C)(C)CCC1 [compound 16, 4-(Hydroxymethyl)phenyl(2E,4E,6E,8E)-3,7-dimethyl-9-(2,6,6-trimethylcyclohex-1-enyl)nona-2,4,6,8-tetraenoate]
